By IC50 is commonly meant the concentration at which inhibition is half-maximal. The term EC50 denotes the concentration at which the effect is half-maximal. The term Kd denotes the constant that tells how readily two partners part at equilibrium. Read a low Kd as tighter binding.

Like-named read-outs stand apart in the source and are kept apart here.

The target of one assay is T1, MCP-1 receptor B (CCR2B) (Homo sapiens, UniProt P41597).
T1 construct: expressed in transfected cells; host or cells: CHO-K1 (clone 7, CHO-CCR2B), membrane fragments
T1 sequence (P41597 1-360 isoform P41597-2): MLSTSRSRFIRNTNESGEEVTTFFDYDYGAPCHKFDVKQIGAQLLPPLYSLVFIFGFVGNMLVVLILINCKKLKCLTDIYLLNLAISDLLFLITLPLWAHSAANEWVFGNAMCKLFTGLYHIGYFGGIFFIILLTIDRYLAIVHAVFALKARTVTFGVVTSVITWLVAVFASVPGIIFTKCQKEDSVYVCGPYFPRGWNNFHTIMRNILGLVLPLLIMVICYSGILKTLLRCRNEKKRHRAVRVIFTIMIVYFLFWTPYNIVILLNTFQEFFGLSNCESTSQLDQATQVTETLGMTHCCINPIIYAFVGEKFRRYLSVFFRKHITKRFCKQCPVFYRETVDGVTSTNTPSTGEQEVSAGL
Kind of assay: hMCP-1 receptor binding assay (125I-MCP-1, CHO-CCR2B cell membranes). From the text:
The MCP-1 receptor B (CCR2B) cDNA was cloned by PCR from THP-1 cell RNA using suitable oligonucleotide primers based on the published MCP-1 receptor sequences (Charo et al., 1994, Proc. Natl. Acad. Sci. USA, 91, 2752). The resulting PCR products were cloned into vector PCR-II™ (In Vitrogen, San Diego, Calif.). Error free CCR2B cDNA was subcloned as a Hind III-Not I fragment into the eukaryotic expression vector pCDNA3 (In Vitrogen) to generate pCDNA3/CC-CKR2A and pCDNA3/CCR2B respectively.
Linearised pCDNA3/CCR2B DNA was transfected into CHO-K1 cells by calcium phosphate precipitation (Wigler el al., 1979, Cell, 16, 777). Transfected cells were selected by the addition of Geneticin Sulphate (G418, Gibco BRL) at 1 mg/ml, 24 hours after the cells had been transfected. Preparation of RNA and Northern blotting were carried out as described previously (Needham et al., 1995, Prot. Express. Purific., 6, 134). CHO-K1 clone 7 (CHO-CCR2B) was identified as the highest MCP-1 receptor B expresser. […]
^125I MCP-1 was prepared using Bolton and Hunter conjugation (Bolton et al. 1973, Biochem. J., 133, 529; Amersham International plc]. Equilibrium binding assays were carried out using, the method of Ernst et al., 1994, J. Immunol., 152, 3541. Briefly, varying amounts of ^125I-labeled MCP-1 were added to 7 μg of purified CHO-CCR2B cell membranes in 100 μl of Binding Buffer. After 1 hour incubation at room temperature the binding reaction mixtures were filtered and washed 5 times through a plate washer (Brandel MLR-96T Cell Harvester) using ice cold Binding Buffer. Filter mats (Brandel GF/B) were pre-soaked for 60 minutes in 0.3% polyethylenimine prior to use. Following filtration individual filters were separated into 3.5 ml tubes (Sarstedt No. 55.484) and bound ^125I-labeled MCP-1 was determined (LKB 1277 Gammamaster). […] Non-specific binding was determined by the inclusion of a 200-fold molar excess of unlabelled MCP-1 in the reaction. […]

For assay [1], the system named is THP-1 cells. As to the kind of experiment: hMCP-1 mediated chemotaxis. It is filed as cell-based, human. On the procedure: (§1) In vitro chemotaxis assays were performed using the human monocytic cell line THP-1. Cell migration through polycarbonate membranes was measured by enumerating those passing through either directly by Coulter counting or indirectly by use of a colourimetric viability assay measuring the cleavage of a tetrazolium salt by the mitochondrial respiratory chain (Scudiero D. A. et al. 1988, Cancer Res., 48, 4827-4833).
(§2) Chemoattractants were introduced into a 96-well microtitre plate which forms the lower well of a chemotaxis chamber fitted with a PVP-free 5 μm poresize polycarbonate adhesive framed filter membrane (NeuroProbe MB series, Cabin John, Md. 20818, USA) according to the manufacturer's instructions. […] The plate was incubated at 37° C. for 3 h and the absorbance of the soluble formazan product was read on a microtitre plate reader at 450 nm. The data was input into a spreadsheet, corrected for any random migration in the absence of chemoattractant and the average absorbance values, standard error of the mean, and significance tests were calculated. hMCP-1 induced concentration dependent cell migration with a characteristic biphasic response, maximal […]. […]

Assay [2] has as its system THP-1 cells. Kind of assay: RANTES mediated chemotaxis. It is filed as cell-based. To be noted: Homo sapiens, RANTES 2 nM, Calcein AM tagged cells. As to the method:
as §1, §2

Assay [3] relates to THP-1 cells. As to the kind of experiment: MCP-1 mediated calcium flux in THP-1 cells. The class given is cell-based, human. To be noted: stimulation of THP-1 cells with hMCP-1, FURA-2; read-out: EC50 of rise in [Ca2+]i. On the procedure:
The human monocytic cell line THP-1 was grown in a synthetic cell culture medium RPMI 1640 supplemented with 10% foetal calf serum, 6 mM glutamine and Penicillin-Streptomycin (at 50 μg streptomycin/ml, Gibco BRL). THP-1 cells were washed in HBSS (lacking Ca^2+ and Mg^2+)+1 mg/ml BSA and resuspended in the same buffer at a density of 3×10^6 cells/ml. The cells were then loaded with […] FURA-2/AM for 30 min at 37° C., washed twice in HBSS, and resuspended at 1×10^6 cells/ml. THP-1 cell suspension (0.9 ml) was added to a 5 ml disposable cuvette containing a magnetic stirrer bar and 2.1 ml of prewarmed (37° C.) HBSS containing 1 mg/ml BSA. 1 mM MgCl2 and 2 mM CaCl2. The cuvette was placed in a fluorescence spectrophotometer (Perkin Elmer, Norwalk, Conn.) and preincubated for 4 min at 37° C. with stirring. Fluorescence was recorded over 70 sec and cells were stimulated by addition of hMCP-1 to the cuvette after 10 sec. [Ca^2+]i was measured by excitation at 340 nm and 380 nm alternately and subsequent measurement of the intensity of the fluorescence emission at 510 nm.
where the Kd for FURA-2 Ca^2+ complex at 37° C. was taken to be 224 nm. […]

`O=C(O)COc1cccc2c1cc(C(=O)O)n2Cc1ccc(F)c(F)c1` [Compound 5, N-(3,4-Difluorobenzyl)-4-(carboxymethoxy)indole-2-carboxylic Acid]: the IC50 on MCP-1 receptor B (CCR2B) (competition with 100 pM labelled MCP-1, CHO-CCR2B membranes, 0.01-50 μM, duplicate eight point curves, read-out: IC50 in the hMCP-1 receptor binding assay) came to 2300 nM.
Molecule `COc1ccc2c(cc(C(=O)O)n2Cc2ccc(Cl)c(Cl)c2)c1OCC(=O)O` [Compound 9, N-(3,4-Dichlorobenzyl)-5-methoxy-4-(carboxymethoxy)indole-2-carboxylic Acid] yielded an IC50 with THP-1 cells [1] (Homo sapiens, 1 nM MCP-1) of 12800 nM.
As for `O=C(O)c1cc2c(OCCCO)cccc2n1Cc1ccc(Cl)c(Cl)c1` [Compound 15, N-(3,4-Dichlorobenzyl)-4-(3-hydroxypropoxy)indole-2-carboxylic Acid], the IC50 in the assay with THP-1 cells [2] was 3640 nM.
As to “MCP-1: Human Monocyte Chemoattractant Protein-1, chemokine ligand of the CCR2 receptor”, in the assay on THP-1 cells [3], the EC50 is roughly 2 nM. The “concentration of maximal cell migration (biphasic response)” value in the assay on THP-1 cells [1] (hMCP-1 as chemoattractant) is 0.5-1.0 nm. Further, the 50% inhibitory concentration (IC50) in the assay with MCP-1 receptor B (CCR2B) (cold competition, 100 pM 125I-labeled MCP-1, CHO-CCR2B membrane fragments, read-out: IC50 of MCP-1 binding to CCR2B receptor) was found to be 0.11 nM. Also, the affinity with MCP-1 receptor B (CCR2B) (equilibrium binding, CHO-CCR2B membrane fragments), expressed as Kd, was 0.12 nM.

(Values after patent US6569888B1, “Anti-inflammatory indole derivatives” (AstraZeneca AB, priority 1999, dated 2003).)
